Experimental findings from ChEMBL document CHEMBL1201862, “PubChem BioAssay data set” (2004) are described below.

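Method: 48-hour compound exposure of cells in 96-well plates, five concentrations, linear interpolation of endpoints. Here, GI50 denotes the concentration required for 50% inhibition of growth.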 The source made the active and inactive calls. Cut-off read from the data, not from the text of the source: active = GI50 up to about 1.1 µM and inactive = higher.

Test in all cases: inhibition of tumour cell growth, NCI panel, 48 h
Assay [1] relates to 786-0.
Assay [2] deals with A498.
The subject of assay [3] is HCT-15.
Assay [4] has as its system HL-60.
The test system of assay [5] is HOP-62.
Assay [6] relates to K562.
Assay [7] relates to KM12.
In assay [8] the test system is LOX IMVI.
Assay [9] relates to M14.
The test system of assay [10] is MCF7.
For assay [11], the system named is MDA-MB-435.
For assay [12], the system named is MOLT-4.
The subject of assay [13] is NCI-H23.
Assay [14] concerns NCI-H522.
Assay [15] relates to OVCAR-5.
Assay [16] has as its system OVCAR-8.
In assay [17] the test system is RXF 393.
The subject of assay [18] is SK-OV-3.
The test system of assay [19] is SNB-75.
The subject of assay [20] is NCI-H460.

Take `CC(C)/C=N\N1C(N)=C(C#N)C(C#N)(C#N)C1C(C)C` (stereo unspecified): the GI50 in assay [1] is 60.7 µM (inactive); in assay [2], 51.3 µM (inactive); in [3], 32.7 µM; in assay [4], 32.4 µM (inactive); in assay [5], 55.7 µM (inactive); in assay [6], 42.1 µM (inactive). Besides, the GI50 in [7] was 44.6 µM (inactive); in assay [8], 31.8 µM (inactive); in [9], 66.1 µM (inactive); in assay [10], 55.5 µM (inactive); in assay [11], 23.4 µM (inactive); in assay [12], 34.8 µM (inactive). In addition, the GI50 is 64.9 µM (inactive) in assay [13]; 62.1 µM (inactive) in assay [14]; 50.2 µM (inactive) in [15]; 25.1 µM (inactive) in [16]; 17.2 µM (inactive) in assay [17]; > 100 µM (inactive) in assay [18]. Besides, the GI50 in assay [19] was 42.8 µM (inactive).

Turning to `CN/N=C(\C)C(CN(C)C)C(c1ccccc1)c1c(O)c2ccccc2oc1=O` (stereo unspecified), the GI50 is > 100 µM (inactive) in assay [1]; > 100 µM (inactive) in [2]; greater than 100 µM in [3]; 29.7 µM (inactive) in assay [4]; > 100 µM (inactive) in [5]; > 100 µM (inactive) in assay [6]. For the same compound, the GI50 was > 100 µM (inactive) in assay [7]; > 100 µM (inactive) in [8]; > 100 µM (inactive) in assay [9]; > 100 µM (inactive) in assay [10]; > 100 µM (inactive) in assay [11]; 75.5 µM (inactive) in assay [12]. Further, the GI50 in assay [13] is > 100 µM (inactive); in assay [20], > 100 µM (inactive); in assay [14], > 100 µM (inactive); in [15], > 100 µM (inactive); in assay [16] it was > 100 µM (inactive); in assay [17], 0.441 µM (active). Also, in assay [19], the GI50 was > 100 µM (inactive).

On to `CN(C)c1ccc(/C=N/NC(=O)c2cnc3ccccc3c2)cc1`, for which the GI50 in assay [1] was 78.5 µM (inactive); in assay [2] it was > 100 µM (inactive); in assay [3], greater than 100 µM; in assay [4], > 100 µM (inactive); in assay [5], 35.5 µM (inactive); in assay [6], > 100 µM (inactive). The GI50 in assay [7] was 38.5 µM (inactive); in assay [8], > 100 µM (inactive); in [9] it was > 100 µM (inactive); in [10] it was > 100 µM (inactive); in assay [11], 4.03 µM (inactive); in assay [13], > 100 µM (inactive). Also, the GI50 is > 100 µM (inactive) in assay [20]; 18.1 µM (inactive) in [14]; > 100 µM (inactive) in assay [15]; 98.2 µM (inactive) in assay [16]; 19.9 µM (inactive) in [17]; 26.5 µM (inactive) in assay [18]. The GI50 in assay [19] is 21.9 µM (inactive).

As for `CN(C)C(=O)C1CCN(Cc2c[nH]c3ccccc23)CC1`, the GI50 in assay [1] is > 100 µM (inactive); in assay [2] it was > 100 µM (inactive); in assay [3] it was greater than 100 µM; in assay [4], > 100 µM (inactive); in assay [5] it was > 100 µM (inactive); in [6], > 100 µM (inactive). Also, the GI50 in assay [7], in [8], in assay [9], in assay [10], in [11] and in [12] was > 100 µM (inactive) throughout. The GI50 in assay [13], in [14], in assay [15], in assay [16], in assay [17] and in assay [18] was > 100 µM (inactive) in each case. For the same compound, in [19], the GI50 was > 100 µM (inactive).
